Measurements: patent publication US6022536A, “Combined use of interleukin 10 and cyclosporin for immunosuppression therapy” (Schering Corporation, priority 1996, dated 2000)

Experiments:
Format in all cases: cell-based, human
[1] = test system: PBMC + B; experiment: MLR with purified normal B cells (CD20+) as stimulators, [3H]TdR uptake; conditions: IL-10 200 U/ml; medium 3939 ± 100
Protocol: (§1) The stimulator PBMAC were treated with 50 μl mitomycin C (Sigma Chemical Co., St. Louis, Mo.) for 20 minutes at 37° C. The responder PBMC and the stimulator cells were added to a 96-well microtiter plate (Becton Dickinson, Lincoln Park, N.J.) at 1×10^5 cells per well of each, along with cytokines or antibodies in a total volume of 200 μl in triplets. The cultures were incubated at 37° C. with 5% CO2 in air for 6 days. The cultures were then pulsed with 1 μCi [^3 H]TdR (15.6CI/mmol, NEN, Boston, Mass.) per well for 16 hours. The cells were harvested onto a filter using a 96-well cell harvestor (Skatron, Inc., Sterling, Va.) and counted on a beta counter (Pharmacia LKB Nuclear Inc., Gaithersburg, Md.).
(§2) The supernatant from the MLR was removed and the non-adherent PBMC harvested. The adherent cells were harvested by incubation with 5 mM EDTA at 4° C. for 20 minutes and gently scraped. Cells were combined, centrifuged at 300×g for 10 minutes and washed 3 times in ice-cold PBS. The viable cells were enumerated by Trypan Blue exclusion using a Neubaeur counting chamber, resuspended to 1×10^7 cell/ml in PBS and 100 μl of human IgG (1 mg/ml) was added to each well and incubated on ice. […] Mean channel fluorescence and percent positives for specific markers were determined using LYSIS II software (BDIS). […]

[2] = test system: TNF-α; experiment: TNF-α in supernatant of JY-induced MLR, ELISA; conditions: 60 hours; IL-10 100 U/ml, CSA 40 ng/ml; PBMC JY alone 154
Protocol: (§3) ELISA kits for cytokine production determination were purchased from R&D systems, Minneapolis, Minn.
(§4) To investigate the mechanism by which B cell line-induced MLR resists suppression by IL-10, the effect of IL-10 on cytokine synthesis in this MLR was examined. The presence of IL-2, IFN-γ and TNF-α in supernatants of MLR set up with and without IL-10 ([…]) for 60 hours was determined using ELISA kits.
(§5) ^a The MLR cultures were set up as described above using PBMC (1
(§6) × 10^6 /ml) as responder and mitomycin Ctreated JY cells (5
(§7) × 10^5 cell/) or allogeneic PBMC (5 × 10^5) as
(§8) stimulators in a 24well plate for 60 hours. IL10 was used at 100 U/ml and […]

[3] = test system: IFN-γ; experiment: IFN-γ in supernatant of JY-induced MLR, ELISA; conditions: 60 hours; IL-10 100 U/ml, CSA 40 ng/ml; PBMC JY alone 5715
Protocol: as §3, §4, §5, §6, §7, §8

[4] = test system: T cell proliferation in MLR (PBMC); experiment: one-way primary mixed lymphocyte reaction (MLR), PBMC + mitomycin-treated allogeneic PBMC, [3H]TdR uptake
Protocol: Human blood samples were collected in heparinized vacutainers. To facilitate removal of red blood cells (RBC), 2 ml of 6% dextran in phosphate buffered saline (PBS) (JRH Biosciences, Lenexa, Kans.) was added to each vacutainer, mixed and allowed to stand at room temperature for 30-45 min. The top buffy coat layer was carefully removed and cells centrifuged (300×g, 10 min., 4° C.). The cells were washed 3 times in 15 ml PBS. The peripheral blood mononuclear cells (PBMC) were isolated using a FICOLL-PAQUE (Pharmacia, Piscataway, N.J.) gradient. Ten ml of cells were layered on top of 4 ml FICOLL-PAQUE, centrifuged (1400×g, 20 min., room temperature) and the cells sedimenting at the interface were collected. These PBMC were washed 3 times in PBS, enumerated and resuspended in appropriate media for use in MLR experiments. […] Cell purity determined by staining with CD14 monoclonal antibodies and flow microfluorometric (FMF) analysis was 92% CD14^+. Viability determined by trypan blue exclusion was >95%.
The stimulator PBMAC were treated with 50 μl mitomycin C (Sigma Chemical Co., St. Louis, Mo.) for 20 minutes at 37° C. […] The cells were harvested onto a filter using a 96-well cell harvestor (Skatron, Inc., Sterling, Va.) and counted on a beta counter (Pharmacia LKB Nuclear Inc., Gaithersburg, Md.). […]

[5] = test system: IL-2; experiment: IL-2 in supernatant of JY-induced MLR, ELISA; conditions: 60 hours; IL-10 100 U/ml, CSA 40 ng/ml; PBMC JY alone 3006
Protocol: as §3, §4, §5, §6, §7, §8

[6] = test system: TNF-α; experiment: TNF-α in supernatant of PBMC + PBMC MLR, ELISA; conditions: 60 hours; IL-10 100 U/ml; detection limit 25 pg/ml
Protocol: as §3, §4, §5, §6, §7, §8

[7] = test system: PBMC + Daudi; experiment: MLR with Daudi B cell line as stimulator, [3H]TdR uptake; conditions: IL-10 200 U/ml; medium 37357 ± 4497
Protocol: as §1
(§9) To address this question further, the ability of IL-10 to suppress the proliferation in MLR when allogeneic PBMC, purified B cells, monocytes or B cell lines were used as stimulators was studied.

[8] = test system: IFN-γ; experiment: IFN-γ in supernatant of PBMC + PBMC MLR, ELISA; conditions: 60 hours; IL-10 100 U/ml; detection limit 25 pg/ml
Protocol: as §3, §4, §5, §6, §7, §8

[9] = test system: PBMC + monocytes; experiment: MLR with purified monocytes (CD14+) as stimulators; conditions: monocytes (98% CD14+) as stimulators, PBMC as responder
Protocol: as §1, §2

[10] = test system: direct allostimulation of T cells; experiment: direct allostimulation: one way primary MLR, responder PBMCs depleted of APC; conditions: responder PBMCs depleted of APC's; similar with CD4+ or CD8+ responders
Protocol: (§10) Purified PBMC from human blood were collected in heparinated tubes by FICOLL gradient. The blood was diluted 1:1 with PBS. 30 ml of the diluted blood was laid on top of 20 ml Ficoll in a 50 ml conical tube and spun at 2,000 rpm for 30 minutes. The interface cells were collected and washed 3 times with medium (10% FCS/RPMI).
(§11) The plastic adherent antigen presenting cells (APC) were removed by resuspended PBMC in 1%. human serum (Type AB) at 1×10^6 cells/ml, and incubated at 37° C. for 30 min. The cells which floated were collected and placed in media (10% FCS/RPMI).
(§12) Nylon wool adherent APC were removed as follows:
(§13) A 10 ml syringe was packed with 1.5 g of nylon wool (Polysciences, Inc., Cat. #18369) and autoclaved. A 3-way stopcock and a 22-gauge needle were attached to the syringe, and the column was washed with 50 ml of prewarmed medium. A cell suspension of 5×10^7 cells/ml of […] was prepared in prewarmed medium. Just before adding the cell suspension, the wool was rinsed with 5 ml of prewarmed medium, the column was left to run dry, and the stopcock was closed. Cells (5-10×10^7) were added. The cells were allowed to penetrate the column, and the stopcock was closed. An additional 0.5 ml of medium was added and the column maintained at 37° C. for 45 minutes. […]

[11] = test system: PBMC + JY; experiment: MLR with JY B cell line as stimulator, [3H]TdR uptake
Protocol: as §1, §9

[12] = test system: indirect allostimulation of T cells; experiment: indirect allostimulation: MLR, APC depleted from the stimulator population; conditions: APC's depleted from the stimulator population
Protocol: as §10, §11, §12, §13

[13] = test system: IL-2; experiment: IL-2 in supernatant of PBMC + PBMC MLR, ELISA; conditions: 60 hours; IL-10 100 U/ml; detection limit 50 pg/ml
Protocol: as §3, §4, §5, §6, §7, §8

IL-10: human interleukin 10, a cytokine produced by T lymphocytes
CPM (M ± SD), 3H-TdR uptake [1]: 182 ± 47 CPM | Cytokine concentration TNF-α [2]: 209 pg/mL | Cytokine concentration IFN-γ [3]: 2960 pg/mL | IC50 [4]: 8 pM | CPM (mean ± SD), 3H-TdR uptake ([4]; Human IL-10 100 U/ml, 19B1 and rat IgG at 2.5 U g/ml, untreated MLR 5127 ± 935): 643 ± 197 CPM | Cytokine concentration IL-2 [5]: 1294 pg/mL | Cytokine concentration TNF-α [6]: < 25 pg/mL | CPM (M ± SD), 3H-TdR uptake [7]: 45763 ± 3089 CPM | Cytokine concentration IFN-γ [8]: < 25 pg/mL | suppression of MLR-induced proliferation [9]: strongly suppresses | suppression of direct allostimulation, compared with CSA [10]: more suppression than CSA | CPM (M ± SD), 3H-TdR uptake ([11]; IL-10 200 U/ml, medium 26222 ± 6293): 25182 ± 7302 CPM | suppression of JY-induced MLR ([11]; higher doses of IL-10 up to 1000 U/ml): did not suppress | inhibition of indirect allostimulation, compared with CSA [12]: stronger inhibitor to the indirect allostimulation than CSA | Cytokine concentration IL-2 [13]: < 50 pg/mL
